# Source: patent US20210186960A1, “MODULATORS OF INDOLEAMINE 2,3-DIOXYGENASE” (GLAXOSMITHKLINE INTELLECTUAL PROPERTY DEVELOPMENT LIMITED, priority 2017, published 2021)
# Where two headings read alike, the source gives them in different places.
# Experiment: Plasma PK and tissue distribution after oral dosing of INTERMEDIATE C4 (3 mg/kg)
# Format: in vivo
# Settings: PO 3 mg/kg INTERMEDIATE C4, male Wistar Han rat; for Kp at 1 h / Kp at 4 h / Kp at 8 h / Kp / concentration at 1 h / concentration at 4 h / concentration at 8 h: male, Wistar Han, rat, po
# Protocol: Tissue Distribution of drug intermediate C4 from oral dosing of C4 and of intermediate C4 from oral dosing of example 7 in rats
# • Wistar Han rat, 185-197 g, male, N=8, purchased from Beijing Vital River Co. LTD. Qualification No.: SCXK(J) 2016-0011 11400700240027. Fasted overnight and fed 4 hr post dose. PO: 3 mg/kg (10 mL/kg) via oral gavage(N=8). Sampling at 1, 4, 8 and 24 hr , 4 time points, terminal bleeding for plasma, liver, lymph nodes and spleen collected at each time point.
compound,measurement,setting,value
CC(C)CN(c1ccc([C@H](C)CC(=O)O)cc1Nc1cnc(Cl)cn1)C1CCOCC1 [intermediate C4],Liver to plasma ratio individual,"1 hr, 3 mg/kg",8.11
same,Lymph node to plasma ratio individual,"1 hr, 3 mg/kg",0.254
same,Spleen to plasma ratio individual,"1 hr, 3 mg/kg",0.197
same,liver Concentration individual,"1 hr, 3 mg/kg",2570 ng/g
same,lymph node Concentration individual,"1 hr, 3 mg/kg",80.4 ng/g
same,plasma Concentration individual,"1 hr, 3 mg/kg",0.317 µg/mL
same,spleen Concentration individual,"1 hr, 3 mg/kg",62.4 ng/g
same,Liver to plasma ratio individual,"4 hr, 3 mg/kg",14.7
same,Lymph node to plasma ratio individual,"4 hr, 3 mg/kg",0.905
same,Spleen to plasma ratio individual,"4 hr, 3 mg/kg",0.333
same,liver Concentration individual,"4 hr, 3 mg/kg",898 ng/g
same,lymph node Concentration individual,"4 hr, 3 mg/kg",55.4 ng/g
same,plasma Concentration individual,"4 hr, 3 mg/kg",0.0612 µg/mL
same,spleen Concentration individual,"4 hr, 3 mg/kg",20.4 ng/g
same,spleen Concentration Mean,8 hr,BQL
same,spleen Concentration individual,8 hr,BQL
same,Liver to plasma ratio individual,"8 hr, 3 mg/kg",13.2
same,liver Concentration individual,"8 hr, 3 mg/kg",299 ng/g
same,lymph node Concentration individual,"8 hr, 3 mg/kg",BQL
same,plasma Concentration individual,"8 hr, 3 mg/kg",0.0227 µg/mL
same,liver Concentration Mean,24 hr,BQL
same,liver Concentration individual,24 hr,BQL
same,lymph node Concentration Mean,24 hr,BQL
same,lymph node Concentration individual,24 hr,BQL
same,plasma Concentration Mean,24 hr,BQL
same,plasma Concentration individual,24 hr,BQL
same,spleen Concentration Mean,24 hr,BQL
same,spleen Concentration individual,24 hr,BQL
same,AUC(0-t),"liver, read-out: AUClast (liver)",10.2 µg·h/mL
same,AUC(0-t),"lymph node, read-out: AUClast (lymph node)",0.381 µg·h/mL
same,Kp at 1 h,"liver / plasma, 3 mg/kg, 1 hr, read-out: Liver to plasma ratio Mean",9.31
same,Kp at 1 h,"liver / plasma, 3 mg/kg, 1 hr, read-out: Liver to plasma ratio individual",10.5
same,Kp at 4 h,"liver / plasma, 3 mg/kg, 4 hr, read-out: Liver to plasma ratio Mean",13.7
same,Kp at 4 h,"liver / plasma, 3 mg/kg, 4 hr, read-out: Liver to plasma ratio individual",12.7
same,Kp at 8 h,"liver / plasma, 3 mg/kg, 8 hr, read-out: Liver to plasma ratio Mean",14.6
same,Kp at 8 h,"liver / plasma, 3 mg/kg, 8 hr, read-out: Liver to plasma ratio individual",16
same,Kp,"liver / plasma, 3 mg/kg, read-out: AUCliver/AUCplasma",10.7
same,concentration at 1 h,"liver, 3 mg/kg, 1 hr, read-out: liver Concentration Mean",3130 ng/g
same,concentration at 1 h,"liver, 3 mg/kg, 1 hr, read-out: liver Concentration individual",3690 ng/g
same,concentration at 4 h,"liver, 3 mg/kg, 4 hr, read-out: liver Concentration Mean",883 ng/g
same,concentration at 4 h,"liver, 3 mg/kg, 4 hr, read-out: liver Concentration individual",868 ng/g
same,concentration at 8 h,"liver, 3 mg/kg, 8 hr, read-out: liver Concentration Mean",420 ng/g
same,concentration at 8 h,"liver, 3 mg/kg, 8 hr, read-out: liver Concentration individual",540 ng/g
same,Kp at 1 h,"lymph node / plasma, 3 mg/kg, 1 hr, read-out: Lymph node to plasma ratio Mean",0.293
same,Kp at 1 h,"lymph node / plasma, 3 mg/kg, 1 hr, read-out: Lymph node to plasma ratio individual",0.333
same,Kp at 4 h,"lymph node / plasma, 3 mg/kg, 4 hr, read-out: Lymph node to plasma ratio Mean",0.716
same,Kp at 4 h,"lymph node / plasma, 3 mg/kg, 4 hr, read-out: Lymph node to plasma ratio individual",0.526
same,Kp at 8 h,"lymph node / plasma, 3 mg/kg, 8 hr, read-out: Lymph node to plasma ratio Mean",0.353
same,Kp at 8 h,"lymph node / plasma, 3 mg/kg, 8 hr, read-out: Lymph node to plasma ratio individual",0.353
same,Kp,"lymph node / plasma, 3 mg/kg, read-out: AUClimphnode/AUCplasma",0.401
same,concentration at 1 h,"lymph node, 3 mg/kg, 1 hr, read-out: lymph node Concentration Mean",98.7 ng/g
same,concentration at 1 h,"lymph node, 3 mg/kg, 1 hr, read-out: lymph node Concentration individual",117 ng/g
same,concentration at 4 h,"lymph node, 3 mg/kg, 4 hr, read-out: lymph node Concentration Mean",45.7 ng/g
same,concentration at 4 h,"lymph node, 3 mg/kg, 4 hr, read-out: lymph node Concentration individual",35.9 ng/g
same,concentration at 8 h,"lymph node, 3 mg/kg, 8 hr, read-out: lymph node Concentration Mean",11.9 ng/g
same,concentration at 8 h,"lymph node, 3 mg/kg, 8 hr, read-out: lymph node Concentration individual",11.9 ng/g
same,concentration at 1 h,"plasma, 3 mg/kg, 1 hr, read-out: plasma Concentration Mean",0.334 µg/mL
same,concentration at 1 h,"plasma, 3 mg/kg, 1 hr, read-out: plasma Concentration individual",0.351 µg/mL
same,concentration at 4 h,"plasma, 3 mg/kg, 4 hr, read-out: plasma Concentration Mean",0.0647 µg/mL
same,concentration at 4 h,"plasma, 3 mg/kg, 4 hr, read-out: plasma Concentration individual",0.0682 µg/mL
same,concentration at 8 h,"plasma, 3 mg/kg, 8 hr, read-out: plasma Concentration Mean",0.0282 µg/mL
same,concentration at 8 h,"plasma, 3 mg/kg, 8 hr, read-out: plasma Concentration individual",0.0337 µg/mL
same,concentration at 1 h,"spleen, 3 mg/kg, 1 hr, read-out: spleen Concentration Mean",63.9 ng/g
same,concentration at 1 h,"spleen, 3 mg/kg, 1 hr, read-out: spleen Concentration individual",65.3 ng/g
same,concentration at 4 h,"spleen, 3 mg/kg, 4 hr, read-out: spleen Concentration Mean",19.9 ng/g
same,concentration at 4 h,"spleen, 3 mg/kg, 4 hr, read-out: spleen Concentration individual",19.3 ng/g
same,Kp at 1 h,"spleen/plasma, 3 mg/kg, 1 hr, read-out: Spleen to plasma ratio Mean",0.191
same,Kp at 1 h,"spleen/plasma, 3 mg/kg, 1 hr, read-out: Spleen to plasma ratio individual",0.186
same,Kp at 4 h,"spleen/plasma, 3 mg/kg, 4 hr, read-out: Spleen to plasma ratio Mean",0.308
same,Kp at 4 h,"spleen/plasma, 3 mg/kg, 4 hr, read-out: Spleen to plasma ratio individual",0.283
same,Kp,"spleen/plasma, 3 mg/kg, read-out: AUCspleen/AUCplasma",0.166
same,AUC(0-inf),"plasma, mean",1.03 µg·h/mL
same,Cmax,"plasma, mean",0.334 µg/mL
same,Tmax,"plasma, mean",1 h
same,AUC(0-t),"plasma, mean, read-out: AUClast",0.951 µg·h/mL
same,half-life,"plasma, mean, read-out: Terminal t1/2 (converted)",2.01 h
same,AUC(0-t),"spleen, read-out: AUClast (spleen)",0.157 µg·h/mL
